Laboratory results: patent publication US6737383B1, “Herbicidal oxadiazolidines” (priority 1999, dated 2004)

How the values were obtained:
duck salad = assay: Test B flood test duck salad; type: in vivo, Heteranthera limosa
Summary of the method: (§1)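 Plants were grown to the 2-leaf stage before treatment with test chemical, then held in a greenhouse for twelve to sixteen days. Injury was visually rated against untreated controls on a 0–10 scale, where 0 is no effect and 10 is complete control.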

velvetleaf = assay: Test B pre/postemergence velvetleaf; type: in vivo, Abutilon theophrasti
Summary of the method: (§2)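 Test chemicals in a non-phytotoxic solvent mixture with surfactant were sprayed preemergence onto planted seeds and postemergence onto plants 2 to 18 cm tall (1- to 4-leaf stage). After twelve to sixteen days in a greenhouse, injury was visually rated against untreated controls from 0 (no effect) to 10 (complete control).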

wild oat = assay: Test B pre/postemergence wild oat; type: in vivo, Avena fatua
Summary of the method: as §2

giant foxtail = assay: Test B pre/postemergence giant foxtail; type: in vivo, Setaria faberii
Summary of the method: as §2

morningglory = assay: Test B pre/postemergence morningglory; type: in vivo, Ipomoea hederacea
Summary of the method: as §2

purple nutsedge = assay: Test B pre/postemergence purple nutsedge; type: in vivo, Cyperus rotundus
Summary of the method: as §2

blackgrass = assay: Test B pre/postemergence blackgrass; type: in vivo, Alopecurus myosuroides
Summary of the method: as §2

rice = assay: Test B flood test rice; type: in vivo, Oryza sativa
Summary of the method: as §1

rape = assay: Test B pre/postemergence rape; type: in vivo, Brassica napus
Summary of the method: as §2

pigweed = assay: Test B pre/postemergence pigweed; type: in vivo, Amaranthus retroflexus
Summary of the method: as §2

soybean = assay: Test B pre/postemergence soybean; type: in vivo, Glycine max
Summary of the method: as §2

bamyardgrass = assay: Test B flood test barnyardgrass; type: in vivo, Echinochloa crus-galli
Summary of the method: as §1

crabgrass = assay: Test B pre/postemergence crabgrass; type: in vivo, Digitaria sanguinalis
Summary of the method: as §2

sugar beet = assay: Test B pre/postemergence sugar beet; type: in vivo, Beta vulgaris
Summary of the method: as §2

cocklebur = assay: Test B pre/postemergence cocklebur; type: in vivo, Xanthium strumarium
Summary of the method: as §2

surinam grass = assay: Test B pre/postemergence surinam grass; type: in vivo, Brachiaria decumbens
Summary of the method: as §2

corn = assay: Test B pre/postemergence corn; type: in vivo, Zea mays
Summary of the method: as §2

bedstraw = assay: Test B pre/postemergence bedstraw; type: in vivo, Galium aparine
Summary of the method: as §2

wheat = assay: Test B pre/postemergence wheat; type: in vivo, Triticum aestivum
Summary of the method: as §2

smallflower flatsedge = assay: Test B flood test smallflower flatsedge; type: in vivo, Cyperus difformis
Summary of the method: as §1

[1] = Rate 62 g/ha, flood test species, Pre-emergence, visual evaluation after twelve to sixteen days
[2] = Rate 125 g/ha, under heading Pre-emergence, flood test species, visual evaluation after twelve to sixteen days
[3] = Rate 250 g/ha, Pre-emergence (flood test species), scale 0 to 10, 0 is no effect, 10 is complete control
[4] = Rate 500 g/ha, Pre-emergence section of Table B, 0 to 10 scale (0 no effect, 10 complete control)
[5] = Postemergence, Rate 62 g/ha, scale 0 to 10, 0 is no effect, 10 is complete control
[6] = Postemergence, Rate 125 g/ha, scale of 0 to 10 where 0 is no effect and 10 is complete control
[7] = Postemergence, Rate 250 g/ha, scale of 0 to 10, 0 is no effect, 10 is complete control
[8] = Postemergence, Rate 500 g/ha, scale of 0 to 10 where 0 is no effect and 10 is complete control
[9] = Preemergence, Rate 62 g/ha, scale 0 to 10 (0 no effect, 10 complete control)
[10] = Preemergence, Rate 125 g/ha, scale of 0 to 10 where 0 is no effect and 10 is complete control
[11] = Preemergence, Rate 500 g/ha, scale of 0 to 10 where 0 is no effect and 10 is complete control

CC(C)N(C(=O)n1oc(=O)n(CC2=NOCCC2)c1=O)c1ccc(F)cc1 [Compound 601]
9: Plant response rating, Giant foxtail (giant foxtail; [8]) | Blackgrass plant response rating (blackgrass; [11]) | Plant response rating, Crabgrass (crabgrass; [8]) | Crabgrass plant response rating (crabgrass; [10])
8: Wild oats plant response rating (wild oat; [10]) | Plant response rating, Wild oats (wild oat; [11]) | Plant response rating, Blackgrass (blackgrass; [8]) | Blackgrass plant response rating (blackgrass; [10]) | Blackgrass plant response rating (0 to 10 scale) (blackgrass; Preemergence, Rate 250 g/ha) | B. signalgrass plant response rating (0 to 10 scale, 0 is no effect, 10 is complete control) (surinam grass; Preemergence, Rate 250 g/ha) | B. signalgrass plant response rating (surinam grass; [11]) | Plant response rating, Bedstraw (bedstraw; [8])
0: Plant response rating, Ducksalad (0 to 10 scale, 0 is no effect, 10 is complete control) (duck salad; [1]) | Ducksalad plant response rating (0 to 10 scale, 0 is no effect, 10 is complete control) (duck salad; [2]) | Ducksalad plant response rating (duck salad; [3]) | Ducksalad plant response rating (duck salad; [4]) | Plant response rating, Velvetleaf (velvetleaf; [5]) | Plant response rating, Velvetleaf (velvetleaf; [6]) | Velvetleaf plant response rating (velvetleaf; [7]) | Plant response rating, Wild oats (wild oat; [5]) | Plant response rating, Wild oats (wild oat; [6]) | Wild oats plant response rating (wild oat; [7]) | Plant response rating, Wild oats (wild oat; [8]) | Morningglory plant response rating (morningglory; [9]) | Morningglory plant response rating (morningglory; [10]) | Plant response rating, Morningglory (morningglory; [11]) | Plant response rating, Nutsedge (purple nutsedge; [5]) | Plant response rating, Nutsedge (purple nutsedge; [6]) | Nutsedge plant response rating (purple nutsedge; [7]) | Plant response rating, Nutsedge (purple nutsedge; [8]) | Nutsedge plant response rating (purple nutsedge; [9]) | Nutsedge plant response rating (purple nutsedge; [10]) | Plant response rating, Rice (0 to 10 scale, 0 is no effect, 10 is complete control) (rice; [1]) | Rice plant response rating (0 to 10 scale, 0 is no effect, 10 is complete control) (rice; [2]) | Rice plant response rating (rice; [3]) | Rice plant response rating (rice; [4]) | Plant response rating, Rape (rape; [5]) | Plant response rating, Rape (rape; [6]) | Rape plant response rating (rape; [7]) | Plant response rating, Rape (rape; [8]) | Rape plant response rating (rape; [9]) | Rape plant response rating (rape; [10]) | Plant response rating, Redroot pigweed (pigweed; [5]) | Soybean plant response rating (soybean; [9]) | Soybean plant response rating (soybean; [10]) | Plant response rating, Barnyardgrass (0 to 10 scale, 0 is no effect, 10 is complete control) (bamyardgrass; [1]) | Barnyardgrass plant response rating (0 to 10 scale, 0 is no effect, 10 is complete control) (bamyardgrass; [2]) | Barnyardgrass plant response rating (bamyardgrass; [3]) | Barnyardgrass plant response rating (bamyardgrass; [4]) | Plant response rating, Sugarbeets (sugar beet; [5]) | Plant response rating, Sugarbeets (sugar beet; [6]) | Sugarbeets plant response rating (sugar beet; [7]) | Plant response rating, Sugarbeets (sugar beet; [8]) | Sugarbeets plant response rating (sugar beet; [9]) | Plant response rating, Cocklebur (cocklebur; [5]) | Plant response rating, Cocklebur (cocklebur; [6]) | Cocklebur plant response rating (cocklebur; [7]) | Cocklebur plant response rating (cocklebur; [9]) | Cocklebur plant response rating (cocklebur; [10]) | Cocklebur plant response rating (0 to 10 scale) (cocklebur; Preemergence, Rate 250 g/ha) | Plant response rating, Cocklebur (cocklebur; [11]) | Plant response rating, B. signalgrass (surinam grass; [5]) | Plant response rating, B. signalgrass (surinam grass; [6]) | Plant response rating, Corn (corn; [5]) | Plant response rating, Corn (corn; [6]) | Corn plant response rating (corn; [7]) | Plant response rating, Corn (corn; [8]) | Corn plant response rating (corn; [9]) | Corn plant response rating (corn; [10]) | Corn plant response rating (0 to 10 scale) (corn; Preemergence, Rate 250 g/ha) | Bedstraw plant response rating (bedstraw; [9]) | Bedstraw plant response rating (bedstraw; [10]) | Bedstraw plant response rating (0 to 10 scale) (bedstraw; Preemergence, Rate 250 g/ha) | Plant response rating, Wheat (wheat; [5]) | Plant response rating, Wheat (wheat; [6]) | Wheat plant response rating (wheat; [7]) | Wheat plant response rating (wheat; [9]) | Plant response rating, S. Flatsedge (0 to 10 scale, 0 is no effect, 10 is complete control) (smallflower flatsedge; [1]) | S. Flatsedge plant response rating (0 to 10 scale, 0 is no effect, 10 is complete control) (smallflower flatsedge; [2]) | S. Flatsedge plant response rating (smallflower flatsedge; [3]) | S. Flatsedge plant response rating (smallflower flatsedge; [4])
6: Plant response rating, Soybean (soybean; [8]) | Crabgrass plant response rating (crabgrass; [9]) | Plant response rating, Wheat (wheat; [11])
3: Wild oats plant response rating (wild oat; [9]) | Plant response rating, Crabgrass (crabgrass; [5]) | B. signalgrass plant response rating (surinam grass; [9]) | Plant response rating, Corn (corn; [11]) | Bedstraw plant response rating (bedstraw; [7]) | Plant response rating, Wheat (wheat; [8])
7: Plant response rating, Velvetleaf (velvetleaf; [11]) | Plant response rating, Giant foxtail (giant foxtail; [5]) | Plant response rating, Giant foxtail (giant foxtail; [6]) | Giant foxtail plant response rating (giant foxtail; [7]) | Blackgrass plant response rating (blackgrass; [7]) | Plant response rating, B. signalgrass (surinam grass; [8]) | B. signalgrass plant response rating (surinam grass; [10])
4: Plant response rating, Velvetleaf (velvetleaf; [8]) | Velvetleaf plant response rating (velvetleaf; [10]) | Plant response rating, Redroot pigweed (pigweed; [8]) | Redroot pigweed plant response rating (pigweed; [9]) | Plant response rating, Soybean (soybean; [5]) | Plant response rating, Soybean (soybean; [6]) | Plant response rating, Crabgrass (crabgrass; [6]) | Sugarbeets plant response rating (sugar beet; [10]) | B. signalgrass plant response rating (surinam grass; [7])
2: Plant response rating, Redroot pigweed (pigweed; [6]) | Redroot pigweed plant response rating (pigweed; [7])
1: Velvetleaf plant response rating (velvetleaf; [9]) | Plant response rating, Morningglory (morningglory; [5]) | Plant response rating, Morningglory (morningglory; [6]) | Morningglory plant response rating (morningglory; [7]) | Plant response rating, Morningglory (morningglory; [8]) | Plant response rating, Soybean (soybean; [11]) | Plant response rating, Cocklebur (cocklebur; [8]) | Wheat plant response rating (wheat; [10])
10: Giant foxtail plant response rating (giant foxtail; [9]) | Giant foxtail plant response rating (giant foxtail; [10]) | Plant response rating, Giant foxtail (giant foxtail; [11]) | Redroot pigweed plant response rating (pigweed; [10]) | Plant response rating, Redroot pigweed (pigweed; [11]) | Plant response rating, Crabgrass (crabgrass; [11])
5: Plant response rating, Rape (rape; [11]) | Soybean plant response rating (soybean; [7]) | Crabgrass plant response rating (crabgrass; [7]) | Plant response rating, Sugarbeets (sugar beet; [11])
